Data: patent US20090215778A1, “Alpha-substituted Arylmethyl Piperazine Pyrazolo [1,5-alpha]Pyrimidine Amide Derivatives” (priority 2007, published 2009)

Assays:
[1] = target: T1, HIV Env six-helix bundle (6HB) structure (Human immunodeficiency virus type 1 group M subtype B, UniProt P04579); assay: Six-helix bundle (6HB) assay; type: cell-based, HIV-1 (strain RF)
T1 construct: H9 cells chronically infected with HIV-1 (H9/HIV-1RF); endogenous in cells; host or cells: H9 cells chronically infected with HIV-1 strain RF (Env is made from the virus in the infected cells, not by transfection)
Method in brief: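 Chronically HIV-1 RF-infected H9 cells (12-40 days post-infection), 2.5×10^5 per well, were preincubated with compound for 30 min at 37 °C. sCD4 at 1 μg/mL was added for 1 h to trigger Env changes. 6HB-specific rabbit serum (1 h, 37 °C) was then added, followed by PE anti-rabbit (45 min, 4 °C), with flow cytometric fluorescence read-out.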

[2] = test system: HIV-1, NL4-3 strain; assay: Virus infection assay (virus entry and single-cycle infection); type: cell-based; conditions: Human immunodeficiency virus 1, NL43, TZM-b1, read-out: Nl4
Method in brief: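 TZM-b1 cells (CD4, CXCR4, CCR5; LTR-driven lacZ/luciferase reporters) were infected with HIV-1 NL4-3 (MOI 0.01) with 80 μg/mL DEAE-dextran in the presence of test compound, 4 h at 37 °C before adding complete medium. Infection was quantified one day post-infection as chemiluminescent β-galactosidase signal.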

T1 sequence (P04579 32-519): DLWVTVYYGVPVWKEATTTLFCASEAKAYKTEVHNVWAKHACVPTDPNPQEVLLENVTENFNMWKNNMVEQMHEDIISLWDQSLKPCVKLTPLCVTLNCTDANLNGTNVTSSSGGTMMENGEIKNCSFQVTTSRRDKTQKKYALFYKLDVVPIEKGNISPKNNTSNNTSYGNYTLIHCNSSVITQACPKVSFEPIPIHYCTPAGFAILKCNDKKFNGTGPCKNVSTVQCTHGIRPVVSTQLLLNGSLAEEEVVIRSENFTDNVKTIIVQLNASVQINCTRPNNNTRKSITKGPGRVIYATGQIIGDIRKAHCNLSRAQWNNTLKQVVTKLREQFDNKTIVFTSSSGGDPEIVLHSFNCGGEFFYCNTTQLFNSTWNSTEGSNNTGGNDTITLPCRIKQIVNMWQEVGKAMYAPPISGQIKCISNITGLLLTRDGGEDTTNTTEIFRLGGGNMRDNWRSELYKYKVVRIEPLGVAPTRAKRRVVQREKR
T1 sequence (P04579 520-865): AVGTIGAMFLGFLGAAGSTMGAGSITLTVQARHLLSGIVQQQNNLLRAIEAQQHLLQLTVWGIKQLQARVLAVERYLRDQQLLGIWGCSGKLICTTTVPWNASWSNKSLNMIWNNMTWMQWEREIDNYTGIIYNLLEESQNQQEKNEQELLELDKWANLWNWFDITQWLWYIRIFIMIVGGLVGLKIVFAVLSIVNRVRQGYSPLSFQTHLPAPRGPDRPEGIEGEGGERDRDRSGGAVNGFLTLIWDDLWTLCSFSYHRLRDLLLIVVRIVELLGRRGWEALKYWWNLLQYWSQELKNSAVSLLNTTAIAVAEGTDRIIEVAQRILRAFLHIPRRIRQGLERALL

COc1ccc(-c2nc3c(C(=O)N4CCN(C(CO)c5cnccc5OC)C[C@H]4C)cnn3c(C(F)(F)F)c2C)cc1 (stereo partly drawn) [methanone, [(2R)-4-[2-hydroxy-1-(4-methoxy-3-pyridinyl)ethyl]-2-methyl-1-piperazinyl][5-(4-methoxyphenyl)-6-methyl-7-(trifluoromethyl)pyrazolo[1,5-α]pyrimidin-3-yl]-]
IC50 [1]: < 1000 nM
IC50 [2]: < 1000 nM

CNCC(c1ccccc1)N1CCN(C(=O)c2cnn3c(C(F)(F)F)c(C)c(-c4ccc(OC)cc4)nc23)[C@H](C)C1 (stereo partly drawn) [methanone, [5-(4-methoxyphenyl)-6-methyl-7-(trifluoromethyl)pyrazolo[1,5-α]pyrimidin-3-yl][(2R)-2-methyl-4-[2-(methylamino)-1-phenylethyl]-1-piperazinyl]-]
IC50 [1]: < 1000 nM
IC50 [2]: < 1000 nM

COc1ccc(-c2nc3c(C(=O)N4CCN(C(CO)c5ccccc5NC(C)=O)C[C@H]4C)cnn3c(C(F)(F)F)c2C)cc1 (stereo partly drawn) [acetamide, N-[2-[2-hydroxy-1-[(3R)-4-[[5-(4-methoxyphenyl)-6-methyl-7-(trifluoromethyl)pyrazolo[1,5-α]pyrimidin-3-yl]carbonyl]-3-methyl-1-piperazinyl]ethyl]phenyl]-]
IC50 [1]: > 10100 nM
IC50 [2]: > 10100 nM

COc1ccc(-c2nc3c(C(=O)N4CCN(C(CO)c5cccc(Br)c5)C[C@H]4C)cnn3c(C(F)(F)F)c2C)cc1 (stereo partly drawn) [methanone, [(2R)-4-[1-(3-bromophenyl)-2-hydroxyethyl]-2-methyl-1-piperazinyl][5-(4-methoxyphenyl)-6-methyl-7-(trifluoromethyl)pyrazolo[1,5-α]pyrimidin-3-yl]-]
IC50 [1]: < 1000 nM
IC50 [2]: < 1000 nM

COc1ccc(-c2nc3c(C(=O)N4CCN([C@@H](C)c5cc(F)cc(F)c5)C[C@H]4C)cnn3c(C(F)(F)F)c2C)cc1 [methanone, [(2R)-4-[(1S)-1-(3,5-difluorophenyl)ethyl]-2-methyl-1-piperazinyl][5-(4-methoxyphenyl)-6-methyl-7-(trifluoromethyl)pyrazolo[1,5-α]pyrimidin-3-yl]-]
IC50 [1]: < 1000 nM
IC50 [2]: < 1000 nM

COc1ccc(-c2nc3c(C(=O)N4CCN([C@@H](CO)c5cccnc5OC)C[C@H]4C)cnn3c(C(F)(F)F)c2C)cc1 [methanone, [(2R)-4-[(1R)-2-hydroxy-1-(2-methoxy-3-pyridinyl)ethyl]-2-methyl-1-piperazinyl][5-(4-methoxyphenyl)-6-methyl-7-(trifluoromethyl)pyrazolo[1,5-α]pyrimidin-3-yl]-]
IC50 [1]: < 1000 nM
IC50 [2]: < 1000 nM

COc1ccc(-c2nc3c(C(=O)N4CCN(C(CO)c5ccccc5OC)C[C@H]4C)cnn3c(C(F)(F)F)c2C)cc1 (stereo partly drawn) [methanone, [(2R)-4-[2-hydroxy-1-(2-methoxyphenyl)ethyl]-2-methyl-1-piperazinyl][5-(4-methoxyphenyl)-6-methyl-7-(trifluoromethyl)pyrazolo[1,5-α]pyrimidin-3-yl]-]
IC50 [1]: < 1000 nM
IC50 [2]: < 1000 nM

COc1ccc(-c2nc3c(C(=O)N4CCN([C@@H](C)c5cc(F)cc(F)c5F)C[C@H]4C)cnn3c(C(F)(F)F)c2C)cc1 [methanone, [5-(4-methoxyphenyl)-6-methyl-7-(trifluoromethyl)pyrazolo[1,5-α]pyrimidin-3-yl][(2R)-2-methyl-4-[(1S)-1-(2,3,5-trifluorophenyl)ethyl]-1-piperazinyl]-]
IC50 [1]: < 1000 nM
IC50 [2]: < 1000 nM

COc1ccc(-c2nc3c(C(=O)N4CCN([C@@H](C)c5cccc(NC(N)=O)c5)C[C@H]4C)cnn3c(C(F)(F)F)c2C)cc1 [urea, N-[3-[(1S)-1-[(3R)-4-[[5-(4-methoxyphenyl)-6-methyl-7-(trifluoromethyl)pyrazolo[1,5-α]pyrimidin-3-yl]carbonyl]-3-methyl-1-piperazinyl]ethyl]phenyl]-]
IC50 [1]: < 1000 nM
IC50 [2]: < 1000 nM

COc1ccc(-c2nc3c(C(=O)N4CCN([C@@H](C)c5ccc(NC(=O)OC(C)(C)C)cc5)C[C@H]4C)cnn3c(C(F)(F)F)c2C)cc1 [carbamic acid, N-[4-[(1S)-1-[(3R)-4-[[5-(4-methoxyphenyl)-6-methyl-7-(trifluoromethyl)pyrazolo[1,5-α]pyrimidin-3-yl]carbonyl]-3-methyl-1-piperazinyl]ethyl]phenyl]-, 1,1-dimethylethyl ester]
IC50 [1]: > 10100 nM
IC50 [2]: < 1000 nM

COc1ccc(-c2nc3c(C(=O)N4CCN([C@@H](CO)c5ccccc5)C[C@H]4C)cnn3c(N(C)C)c2F)cc1 [methanone, [7-(dimethylamino)-6-fluoro-5-(4-methoxyphenyl)pyrazolo[1,5-α]pyrimidin-3-yl][(2R)-4-[(1R)-2-hydroxy-1-phenylethyl]-2-methyl-1-piperazinyl]-]
IC50 [1]: < 1000 nM
IC50 [2]: < 1000 nM

COc1ccc(-c2nc3c(C(=O)N4CCN([C@@H](C)c5ccccc5C#N)C[C@H]4C)cnn3c(C(F)(F)F)c2C)cc1 [benzonitrile, 2-[(1S)-1-[(3R)-4-[[5-(4-methoxyphenyl)-6-methyl-7-(trifluoromethyl)pyrazolo[1,5-α]pyrimidin-3-yl]carbonyl]-3-methyl-1-piperazinyl]ethyl]-]
IC50 [1]: < 1000 nM
IC50 [2]: < 1000 nM

COc1ccc(-c2nc3c(C(=O)N4CCN([C@@H](C)c5nccs5)C[C@H]4C)cnn3c(C(F)(F)F)c2C)cc1 [methanone, [5-(4-methoxyphenyl)-6-methyl-7-(trifluoromethyl)pyrazolo[1,5-α]pyrimidin-3-yl][(2R)-2-methyl-4-[(1S)-1-(2-thiazolyl)ethyl]-1-piperazinyl]-]
IC50 [1]: < 1000 nM
IC50 [2]: < 1000 nM

COc1ccc(-c2nc3c(C(=O)N4CCN([C@@H](C)c5ccco5)C[C@H]4C)cnn3c(C(F)(F)F)c2C)cc1 [methanone, [(2R)-4-[(1S)-1-(2-furanyl)ethyl]-2-methyl-1-piperazinyl][5-(4-methoxyphenyl)-6-methyl-7-(trifluoromethyl)pyrazolo[1,5-α]pyrimidin-3-yl]-]
IC50 [1]: < 1000 nM
IC50 [2]: < 1000 nM

COc1ccc(-c2nc3c(C(=O)N4CCN([C@@H](C)c5ccccc5)C[C@H]4C)cnn3c(C(F)(F)F)c2C)cc1 [methanone, [5-(4-methoxyphenyl)-6-methyl-7-(trifluoromethyl)pyrazolo[1,5-α]pyrimidin-3-yl][(2R)-2-methyl-4-[(1S)-1-phenylethyl]-1-piperazinyl]-]
IC50 [1]: < 1000 nM
IC50 [2]: < 1000 nM

COc1ccc(-c2nc3c(C(=O)N4CCN([C@@H](CO)c5cccc(OC)c5)C[C@H]4C)cnn3c(C(F)(F)F)c2C)cc1 [methanone, [(2R)-4-[(1R)-2-hydroxy-1-(3-methoxyphenyl)ethyl]-2-methyl-1-piperazinyl][5-(4-methoxyphenyl)-6-methyl-7-(trifluoromethyl)pyrazolo[1,5-α]pyrimidin-3-yl]-]
IC50 [1]: < 1000 nM
IC50 [2]: < 1000 nM

COc1ccc(-c2nc3c(C(=O)N4CCN(C(CO)c5cc(F)ccc5OC)C[C@H]4C)cnn3c(C(F)(F)F)c2C)cc1 (stereo partly drawn) [methanone, [(2R)-4-[1-(5-fluoro-2-methoxyphenyl)-2-hydroxyethyl]-2-methyl-1-piperazinyl][5-(4-methoxyphenyl)-6-methyl-7-(trifluoromethyl)pyrazolo[1,5-α]pyrimidin-3-yl]-]
IC50 [1]: < 1000 nM
IC50 [2]: < 1000 nM

COc1ccc(-c2nc3c(C(=O)N4CCN(C(CO)c5ccc(C#N)cc5)C[C@H]4C)cnn3c(C(F)(F)F)c2C)cc1 (stereo partly shown)
IC50 [1]: 1100 to 10000 nM
IC50 [2]: 1100 to 10000 nM

COc1ccc(-c2nc3c(C(=O)N4CCN(C(CO)c5ccc(OC)nc5)C[C@H]4C)cnn3c(C(F)(F)F)c2C)cc1 (stereo partly drawn) [methanone, [(2R)-4-[2-hydroxy-1-(6-methoxy-3-pyridinyl)ethyl]-2-methyl-1-piperazinyl][5-(4-methoxyphenyl)-6-methyl-7-(trifluoromethyl)pyrazolo[1,5-α]pyrimidin-3-yl]-]
IC50 [1]: < 1000 nM
IC50 [2]: < 1000 nM

COc1ccc(-c2nc3c(C(=O)N4CCN([C@@H](C)c5ccc(C#N)cc5)C[C@H]4C)cnn3c(C(F)(F)F)c2C)cc1 [benzonitrile, 4-[(1S)-1-[(3R)-4-[[5-(4-methoxyphenyl)-6-methyl-7-(trifluoromethyl)pyrazolo[1,5-α]pyrimidin-3-yl]carbonyl]-3-methyl-1-piperazinyl]ethyl]-]
IC50 [1]: 1100 to 10000 nM
IC50 [2]: < 1000 nM

COc1ccc(-c2nc3c(C(=O)N4CCN([C@@H](CO)c5ccccc5OC)C[C@H]4C)cnn3c(C(F)(F)F)c2C)cc1 [methanone, [(2R)-4-[(1R)-2-hydroxy-1-(2-methoxyphenyl)ethyl]-2-methyl-1-piperazinyl][5-(4-methoxyphenyl)-6-methyl-7-(trifluoromethyl)pyrazolo[1,5-α]pyrimidin-3-yl]-]
IC50 [1]: < 1000 nM
IC50 [2]: < 1000 nM

COc1ccc(-c2nc3c(C(=O)N4CCN([C@@H](c5ccccc5)C(F)(F)F)C[C@H]4C)cnn3c(C(F)(F)F)c2C)cc1 [methanone, [5-(4-methoxyphenyl)-6-methyl-7-(trifluoromethyl)pyrazolo[1,5-α]pyrimidin-3-yl][(2R)-2-methyl-4-[(1S)-2,2,2-trifluoro-1-phenylethyl]-1-piperazinyl]-]
IC50 [1]: < 1000 nM
IC50 [2]: < 1000 nM

COc1ccc2c(c1)CCc1c-2nc2c(C(=O)N3CCN([C@@H](CO)c4ccccc4)C[C@H]3C)cnn2c1C(F)(F)F [methanone, [5,6-dihydro-3-methoxy-7-(trifluoromethyl)benzo[h]pyrazolo[5,1-b]quinazolin-11-yl][(2R)-4-[(1R)-2-hydroxy-1-phenylethyl]-2-methyl-1-piperazinyl]-]
IC50 [1]: < 1000 nM
IC50 [2]: < 1000 nM
